Experimental data as given in US11834453B2, “Substituted pyrimido[5,4-d]pyrimidines as HER2 inhibitors” (Array BioPharma Inc., priority 2020, dated 2023).

What was measured:
[1] = target: EGFR (Homo sapiens (Human), UniProt P00533); assay: ErbB enzyme assay (CisBio HTRF KinEASE-TK), Assay 3; assay type: biochemical
Outline: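 Kinase + 250 nM biotin TK-substrate, 1 mM ATP, cpd (3-fold dil.), HEPES pH 7.4/10 mM MgCl2/0.01% Triton/2% DMSO; 30 min 22 °C. Quench w/ Sa-XL665 + TK-Ab-Cryptate, 1 h, HTRF. IC50 = 50 POC on 4PL fit.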

[2] = target: ErbB2 insYVMA (HER2-YVMA, SEQ ID NO: 2) (Homo sapiens, UniProt P04626, INS775YVMA/P1170A); assay: biochemical; settings: ErbB2 insYVMA enzyme assay; read-out: Assay 1 IC50
Sequence of ErbB2 insYVMA (HER2-YVMA, SEQ ID NO: 2) (P04626 with tags, fused parts or gaps INS775YVMA/P1170A limits assumed): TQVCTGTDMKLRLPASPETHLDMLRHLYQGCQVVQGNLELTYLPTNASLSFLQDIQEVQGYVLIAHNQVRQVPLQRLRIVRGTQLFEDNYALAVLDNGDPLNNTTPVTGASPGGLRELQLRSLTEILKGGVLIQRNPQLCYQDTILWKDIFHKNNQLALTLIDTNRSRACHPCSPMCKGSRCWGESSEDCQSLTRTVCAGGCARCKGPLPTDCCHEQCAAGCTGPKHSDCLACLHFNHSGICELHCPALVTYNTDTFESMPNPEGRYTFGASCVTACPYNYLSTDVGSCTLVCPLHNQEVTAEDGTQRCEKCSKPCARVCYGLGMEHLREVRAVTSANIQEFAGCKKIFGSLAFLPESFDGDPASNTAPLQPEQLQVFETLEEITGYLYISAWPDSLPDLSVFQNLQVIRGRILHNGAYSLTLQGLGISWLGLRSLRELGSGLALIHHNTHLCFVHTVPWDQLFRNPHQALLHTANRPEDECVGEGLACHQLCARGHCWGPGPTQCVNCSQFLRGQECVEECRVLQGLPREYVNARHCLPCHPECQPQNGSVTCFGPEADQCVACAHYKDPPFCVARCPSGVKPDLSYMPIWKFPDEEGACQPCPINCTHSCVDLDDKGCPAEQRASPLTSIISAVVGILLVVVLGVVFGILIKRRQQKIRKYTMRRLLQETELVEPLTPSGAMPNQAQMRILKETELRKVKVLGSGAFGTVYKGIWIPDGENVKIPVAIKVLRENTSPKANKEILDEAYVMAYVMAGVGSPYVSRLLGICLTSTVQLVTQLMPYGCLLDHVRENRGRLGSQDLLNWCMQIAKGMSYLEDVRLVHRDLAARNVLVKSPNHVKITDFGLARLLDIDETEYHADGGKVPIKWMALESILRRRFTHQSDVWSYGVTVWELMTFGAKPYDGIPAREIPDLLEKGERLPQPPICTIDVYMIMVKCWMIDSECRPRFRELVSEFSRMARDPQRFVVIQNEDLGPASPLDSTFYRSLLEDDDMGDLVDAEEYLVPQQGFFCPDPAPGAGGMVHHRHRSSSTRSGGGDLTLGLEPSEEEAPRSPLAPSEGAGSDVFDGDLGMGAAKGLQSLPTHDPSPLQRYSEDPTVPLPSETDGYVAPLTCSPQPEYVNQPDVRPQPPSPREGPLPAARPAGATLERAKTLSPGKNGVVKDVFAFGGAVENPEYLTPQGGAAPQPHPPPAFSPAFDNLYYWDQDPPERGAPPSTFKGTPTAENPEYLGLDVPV

[3] = target: ErbB2 WT (Homo sapiens (Human), UniProt P04626); assay: ErbB enzyme assay (CisBio HTRF KinEASE-TK), Assay 2; assay type: biochemical
Sequence of ErbB2 WT (P04626 23-1255): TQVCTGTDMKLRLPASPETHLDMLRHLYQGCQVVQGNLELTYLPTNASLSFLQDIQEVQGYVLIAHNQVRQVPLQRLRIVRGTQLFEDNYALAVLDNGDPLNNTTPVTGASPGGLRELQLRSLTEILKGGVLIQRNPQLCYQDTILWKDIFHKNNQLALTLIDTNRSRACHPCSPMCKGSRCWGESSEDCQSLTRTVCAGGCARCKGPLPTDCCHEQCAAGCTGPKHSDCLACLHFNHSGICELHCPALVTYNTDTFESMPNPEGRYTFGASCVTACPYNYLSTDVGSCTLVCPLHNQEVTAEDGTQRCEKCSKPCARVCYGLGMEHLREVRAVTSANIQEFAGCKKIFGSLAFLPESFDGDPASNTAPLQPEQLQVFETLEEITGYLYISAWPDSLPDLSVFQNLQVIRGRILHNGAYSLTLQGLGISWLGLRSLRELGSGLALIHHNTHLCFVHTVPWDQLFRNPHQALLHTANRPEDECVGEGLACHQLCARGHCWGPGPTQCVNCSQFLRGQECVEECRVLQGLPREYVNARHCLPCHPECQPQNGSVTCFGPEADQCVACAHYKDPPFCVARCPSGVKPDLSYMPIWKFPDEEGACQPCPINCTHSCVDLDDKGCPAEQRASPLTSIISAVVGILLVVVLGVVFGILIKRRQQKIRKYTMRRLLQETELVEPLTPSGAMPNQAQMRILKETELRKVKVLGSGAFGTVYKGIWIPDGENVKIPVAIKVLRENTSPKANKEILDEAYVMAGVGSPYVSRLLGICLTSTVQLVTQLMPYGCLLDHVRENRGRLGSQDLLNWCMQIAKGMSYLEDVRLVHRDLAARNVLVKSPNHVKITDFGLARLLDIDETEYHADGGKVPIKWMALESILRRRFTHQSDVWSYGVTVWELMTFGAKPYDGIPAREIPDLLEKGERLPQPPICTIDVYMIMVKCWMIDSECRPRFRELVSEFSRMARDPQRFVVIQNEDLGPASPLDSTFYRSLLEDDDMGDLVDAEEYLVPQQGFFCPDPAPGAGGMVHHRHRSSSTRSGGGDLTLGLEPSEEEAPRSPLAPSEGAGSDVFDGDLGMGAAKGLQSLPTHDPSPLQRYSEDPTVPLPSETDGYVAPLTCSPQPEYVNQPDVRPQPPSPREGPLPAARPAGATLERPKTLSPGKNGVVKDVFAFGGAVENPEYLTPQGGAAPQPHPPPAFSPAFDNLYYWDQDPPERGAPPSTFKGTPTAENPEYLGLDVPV
Outline: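 ErbB2 phosphorylates 250 nM biotin-TK substrate at 1 mM ATP in 25 mM HEPES pH 7.4, 10 mM MgCl2, 0.01% Triton X-100 and 2% DMSO, for 30 min at 22 °C. Product is detected by HTRF with Sa-XL665 and TK-Ab-Cryptate. Percent of control is set by DMSO-only wells and pre-quenched wells.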

[4] = target: EGFR wild type (EGFR WT) (Homo sapiens (Human), UniProt P00533); assay: Cellular phosphorylation assay, EGF-stimulated EGFR phosphorylation in engineered NIH 3T3 cells, Phospho-EGFR DuoSet IC ELISA, Assay 5; assay type: cell-based
Sequence of EGFR wild type (EGFR WT) (P00533 25-1210): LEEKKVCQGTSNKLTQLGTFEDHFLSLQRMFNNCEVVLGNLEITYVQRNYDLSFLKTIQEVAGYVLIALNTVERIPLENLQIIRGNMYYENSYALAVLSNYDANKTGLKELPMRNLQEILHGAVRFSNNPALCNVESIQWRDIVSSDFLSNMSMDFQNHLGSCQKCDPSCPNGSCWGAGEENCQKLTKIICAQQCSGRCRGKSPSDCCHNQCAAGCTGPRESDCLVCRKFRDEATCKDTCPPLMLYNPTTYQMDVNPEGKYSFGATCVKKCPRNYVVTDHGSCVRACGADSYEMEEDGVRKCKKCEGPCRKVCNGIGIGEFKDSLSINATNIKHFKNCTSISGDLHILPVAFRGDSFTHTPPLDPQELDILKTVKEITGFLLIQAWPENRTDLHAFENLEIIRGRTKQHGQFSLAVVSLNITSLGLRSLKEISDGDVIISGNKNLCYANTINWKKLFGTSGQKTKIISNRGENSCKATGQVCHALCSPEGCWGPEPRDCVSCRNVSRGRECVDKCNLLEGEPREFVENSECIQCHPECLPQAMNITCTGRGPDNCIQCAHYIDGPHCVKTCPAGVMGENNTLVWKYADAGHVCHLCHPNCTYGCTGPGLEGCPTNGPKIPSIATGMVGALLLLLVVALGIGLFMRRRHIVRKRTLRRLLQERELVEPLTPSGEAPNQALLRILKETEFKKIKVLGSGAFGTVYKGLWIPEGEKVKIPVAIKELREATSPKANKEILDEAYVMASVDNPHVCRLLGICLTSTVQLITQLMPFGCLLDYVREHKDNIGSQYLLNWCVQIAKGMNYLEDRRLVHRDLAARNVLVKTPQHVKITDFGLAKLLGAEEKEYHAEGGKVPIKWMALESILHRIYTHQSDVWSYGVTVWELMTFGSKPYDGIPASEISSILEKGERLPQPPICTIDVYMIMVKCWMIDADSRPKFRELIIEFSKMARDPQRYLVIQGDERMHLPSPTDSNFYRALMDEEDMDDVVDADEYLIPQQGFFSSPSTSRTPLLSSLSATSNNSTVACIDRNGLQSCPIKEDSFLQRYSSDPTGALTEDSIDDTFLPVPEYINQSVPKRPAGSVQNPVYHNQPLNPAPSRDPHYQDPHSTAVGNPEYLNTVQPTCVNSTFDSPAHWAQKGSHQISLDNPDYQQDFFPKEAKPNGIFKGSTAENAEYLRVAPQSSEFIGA
Outline: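 NIH 3T3 cells expressing EGFR WT (20,000/well, attached overnight) were exposed to serially diluted compound for 1 h at 37 °C, then stimulated with 100 ng/ml rEGF for 10 min. Phospho-EGFR in lysates measured by sandwich ELISA optical density; IC50 from curves.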

[5] = target: ErbB2 with Exon 20 YVMA insertion (HER2-YVMA) (Homo sapiens (Human), UniProt P04626, INS775YVMA); assay: Cellular phosphorylation assay, constitutive ErbB2 phosphorylation (Y1196) in engineered NIH 3T3 cells, Assay 4; assay type: cell-based
Outline: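 Engineered NIH 3T3 cells expressing HER2-YVMA treated with compounds 1 h at 37 °C, then formaldehyde-fixed and methanol-permeabilized. pErbB2 Y1196 detected by in-cell infrared immunofluorescence, normalized to GAPDH. IC50 from the normalized curves.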

Sequence of EGFR (P00533 25-1210): as above

| SMILES | IC50 [1] | IC50 [2] | IC50 [3] | IC50 [4] | IC50 [5] |
| --- | --- | --- | --- | --- | --- |
| CC(=O)O[C@H]1CN(c2ncc3ncnc(Nc4ccc(Oc5ccc6c(c5)ncn6C)c(C)c4)c3n2)C[C@H]1F [Example 90, (3S,4R)-4-fluoro-1-(8-((3-methyl-4-((1-methyl-1H-benzo[d]imidazol-5-yl)oxy)phenyl)amino)pyrimido[5,4-d]pyrimidin-2-yl) pyrrolidin-3-yl acetate] | ≥ 10000 nM | 41 nM | 93.1 nM | ≥ 5000 nM | 29 nM |
| Cc1cc(Nc2ncnc3cnc(O[C@H]4CN(C)C[C@H]4F)nc23)ccc1Oc1ccc2c(c1)ncn2C [Example 287] | ≥ 10000 nM | 42.9 nM | 118 nM | ≥ 5000 nM | 60.9 nM |
| Cc1cc(Nc2ncnc3cnc(N4CCC[C@@H]4C(C)(C)O)nc23)ccc1Oc1ccc2c(c1)ncn2C [Example 371] | ≥ 10000 nM | 67 nM | 492 nM | ≥ 5000 nM | 127 nM |
| Cc1cc(Nc2ncnc3cnc(OCC4(F)CNC4)nc23)ccc1Oc1ccc2c(c1)ncn2C [Example 291] | ≥ 10000 nM | 76.2 nM | 446 nM | ≥ 5000 nM | 84.1 nM |
| Cc1cc(Nc2ncnc3cnc(N4CC5(CCC5O)C4)nc23)ccc1Oc1ccc2c(c1)ncn2C (centres unmarked) [Example 465] | ≥ 10000 nM | 44.3 nM | 47.6 nM | ≥ 5000 nM | 67.8 nM |
| Cc1cc(Nc2ncnc3cnc(N[C@H]4CNC[C@H]4F)nc23)ccc1Oc1ccc2c(c1)ncn2C [Example 276] | 1360 nM | 8 nM | 13.5 nM | ≥ 5000 nM | 41.5 nM |
| Cc1cc(Nc2ncnc3cnc(N4CC(C)CS4(=O)=O)nc23)ccc1Oc1ccc2c(c1)ncn2C (centres unmarked) [Example 140, 4-methyl-2-(8-((3-methyl-4-((1-methyl-1H-benzo[d]imidazol-5-yl)oxy)phenyl)amino)pyrimido[5,4-d]pyrimidin-2-yl)isothiazolidine 1,1-dioxide] | 6360 nM | 21.3 nM | 20.3 nM | ≥ 5000 nM | 8.1 nM |
| COC[C@H]1CCN1c1ncc2ncnc(Nc3ccc(Oc4ccn5ncnc5c4)c(Cl)c3)c2n1 [Example 321] | 4340 nM | 12.9 nM | 65.7 nM | ≥ 5000 nM | 72 nM |
| Cc1cc(Nc2ncnc3cnc(O[C@H]4C[C@@H](F)CN(C)C4)nc23)ccc1Oc1ccc2c(c1)ncn2C [Example 302] | ≥ 10000 nM | 65.9 nM | 391 nM | ≥ 5000 nM | 141 nM |
| Cc1cc(Nc2ncnc3cnc(N(C)CC(C)(C)CO)nc23)ccc1Oc1ccc2c(c1)ncn2C [Example 364] | 2680 nM | 32.8 nM | 29.5 nM | ≥ 5000 nM | 25.7 nM |
| Clc1cc(Nc2ncnc3cnc(N4CCC4)nc23)ccc1Oc1ccn2ncnc2c1 [Example 112, N-(4-([1,2,4]triazolo[1,5-a]pyridin-7-yloxy)-3-chlorophenyl)-6-(azetidin-1-yl)pyrimido[5,4-d]pyrimidin-4-amine] | ≥ 10000 nM | 18.7 nM | 44.1 nM | ≥ 5000 nM | 190 nM |
| Cc1cc(Nc2ncnc3cnc(N4C[C@@H]5C[C@H]4C[C@H]5O)nc23)ccc1Oc1ccc2c(c1)ncn2C [Example 471] | ≥ 10000 nM | 7.1 nM | 49.4 nM | ≥ 5000 nM | 42.5 nM |
| Clc1cc(Nc2ncnc3cnc(N4C[C@@H]5[C@H](C4)[C@@H]4CC[C@H]5O4)nc23)ccc1Oc1ccn2ncnc2c1 [Example 399] | ≥ 10000 nM | 28.2 nM | 29 nM | ≥ 5000 nM | 192 nM |
| Cc1c(Oc2ccn3ncnc3c2)ccc(Nc2ncnc3cnc(N4C[C@@H](O)C(F)(F)C4)nc23)c1F [Example 316] | 5040 nM | 52.2 nM | 111 nM | ≥ 5000 nM | 1320 nM |
| Cc1cc(Nc2ncnc3cnc(N4CC[C@H]4C(C)(C)O)nc23)ccc1Oc1ccn2ncnc2c1 [Example 370] | ≥ 10000 nM | 57.9 nM | 129 nM | ≥ 5000 nM | 2500 nM |
| Cc1c(Oc2ccc3c(c2)ncn3C)ccc(Nc2ncnc3cnc(N4CC[C@@H](O)C4)nc23)c1F [Example 392] | ≥ 10000 nM | 16.6 nM | 14.6 nM | ≥ 5000 nM | 79.9 nM |
